Calls of active or inactive are those of the source. No cut-off for these calls is given here.
Tests used:
HCT-116 [1] = assay: Growth inhibition of human HCT116 cells incubated for 72 hrs by MTT assay; assay type: functional; details: HCT-116, 72 h
MCF7 = assay: Growth inhibition of human MCF7 cells incubated for 72 hrs by MTT assay; assay type: functional; details: MCF7, 72 h
NCI-H460 = assay: Growth inhibition of human H460 cells incubated for 72 hrs by MTT assay; assay type: functional; details: NCI-H460, 72 h
[2] = Growth inhibition of human HaCaT cells incubated for 72 hrs by MTT assay; assay type: cell-based
Calf thymus DNA [3] = assay: Binding affinity to calf thymus dsDNA assessed as binding constant in sodium cacodylate buffer at pH 7 by fluorescence spectroscopy; assay type: nucleic-acid assay; details: Bos taurus
Calf thymus DNA [4] = assay: Binding affinity to calf thymus dsDNA assessed as ratio for bound compound to polynucleotide in sodium cacodylate buffer at pH 7 by fluorescence spectroscopy based Scatchard analysis; assay type: nucleic-acid assay; details: Bos taurus
Calf thymus DNA [5] = assay: Binding affinity to calf thymus dsDNA assessed as ratio for fluorescence intensity of compound to fluorescence intensity for compound-polynucleotide complex in sodium cacodylate buffer at pH 7 by fluorescence spectroscopy based Scatchard method; assay type: nucleic-acid assay; details: Bos taurus
Calf thymus DNA [6] = assay: Binding affinity to calf thymus dsDNA assessed as change in melting temperature in sodium cacodylate buffer at pH 7 at compound:polynucleotide concentration ratio of 0.2 by thermal denaturation assay; assay type: nucleic-acid assay; details: Bos taurus
[7] = system: Poly(dA-dU)oligonucleotide; assay: Binding affinity to polyA-polyU dsRNA (unknown origin) assessed as change in melting temperature in sodium cacodylate buffer at pH 7 at compound:polynucleotide concentration ratio of 0.2 by thermal denaturation assay; assay type: nucleic-acid assay
[8] = Drug uptake in cytoplasm of human H460 cells assessed as perinuclear reticular staining at 1 uM incubated for 15 mins by fluorescence microscopy; assay type: ADME, cell-based; details: nci-h460, 0.25 h
[9] = Drug uptake in nucleus of human H460 cells at 1 uM incubated for 15 mins by fluorescence microscopy; assay type: ADME, cell-based; details: nci-h460, 0.25 h
[10] = Solubility of the compound in 0.05 M sodium cacodylate buffer with <0.01% DMSO upto 1X10'-5 mol/dm3 by UV/Visible spectra analysis; assay type: physicochemical
Calf thymus DNA [11] = assay: Binding affinity to calf thymus ds-DNA assessed as decrease in emission intensity of the compound in sodium cacodylate buffer at pH 7 at 1X10'-6 mol/dm3 by fluorescence spectroscopy; assay type: nucleic-acid assay; details: Bos taurus
[12] = system: Poly(dA-dU)oligonucleotide; assay: Binding affinity to polyA-polyU dsRNA (unknown origin) assessed as decrease in emission intensity of the compound in sodium cacodylate buffer at pH 7 at 1X10'-6 mol/dm3 by fluorescence spectroscopy; assay type: nucleic-acid assay
Calf thymus DNA [13] = assay: Binding affinity to calf thymus dsDNA assessed as stabilization of mixed DNA base pairs in sodium cacodylate buffer at pH 7 at compound:polynucleotide concentration ratio of 0.2 by thermal denaturation assay; assay type: nucleic-acid assay; details: Bos taurus
Calf thymus DNA [14] = assay: Binding affinity to calf thymus dsDNA assessed as intercalating activity by measuring weak negative ICD band between 300 and 330 nm in sodium cacodylate buffer at pH 7 at compound:polynucleotide concentration ratio of 0.1 to 0.3 by CD spectroscopy; assay type: nucleic-acid assay; details: Bos taurus
[15] = system: Poly(dA-dU)oligonucleotide; assay: Binding affinity to polyA-polyU dsRNA (unknown origin) assessed as intercalating activity by measuring decrease in CD spectra of polynucleotides in sodium cacodylate buffer at pH 7 at compound:polynucleotide concentration ratio of 0.1 to 0.4 by CD spectroscopy; assay type: nucleic-acid assay
Calf thymus DNA [16] = assay: Binding affinity to calf thymus dsDNA assessed as intercalating activity by measuring decrease in CD spectra of polynucleotides in sodium cacodylate buffer at pH 7 at compound:polynucleotide concentration ratio of 0.1 to 0.3 by CD spectroscopy; assay type: nucleic-acid assay; details: Bos taurus
HCT-116 [17] = assay: Cell cycle arrest in human HCT116 cells at 0.5 to 1 uM incubated for 24 and 48 hrs by propidium iodide staining based flow cytometry; assay type: functional
HCT-116 [18] = assay: Cytotoxicity against human HCT116 cells assessed as induction of massive cell death at 5 uM incubated for 24 to 48 hrs; assay type: functional, cell-based
[19] = Drug uptake in cytoplasm of human H460 cells assessed as perinuclear reticular staining at 10 uM incubated for 15 mins by fluorescence microscopy; assay type: ADME, cell-based; details: nci-h460, 0.25 h
[20] = system: Poly(dA-dU)oligonucleotide; assay: Binding affinity to polyA-polyU dsRNA (unknown origin) assessed as biphasic thermal denaturation transitions in sodium cacodylate buffer at pH 7 at compound:polynucleotide concentration ratio of 0.2 by thermal denaturation assay; assay type: nucleic-acid assay
[21] = system: Poly(dA-dU)oligonucleotide; assay: Binding affinity to polyA-polyU dsRNA (unknown origin) assessed as binding constant in sodium cacodylate buffer at pH 7 by fluorescence spectroscopy; assay type: nucleic-acid assay
[22] = system: Poly(dA-dU)oligonucleotide; assay: Binding affinity to polyA-polyU dsRNA (unknown origin) assessed as ratio for bound compound to polynucleotide in sodium cacodylate buffer at pH 7 by fluorescence spectroscopy based Scatchard method; assay type: nucleic-acid assay
[23] = system: Poly(dA-dU)oligonucleotide; assay: Binding affinity to polyA-polyU dsRNA (unknown origin) assessed as ratio for fluorescence intensity of compound to fluorescence intensity for compound-polynucleotide complex in sodium cacodylate buffer at pH 7 by fluorescence spectroscopy based Scatchard method; assay type: nucleic-acid assay
[24] = Drug uptake in nucleus of human H460 cells at 10 uM incubated for 15 mins by fluorescence microscopy; assay type: ADME, cell-based; details: nci-h460, 0.25 h
[25] = system: Poly(dA-dU)oligonucleotide; assay: Binding affinity to polyA-polyU dsRNA (unknown origin) assessed as biphasic thermal denaturation transitions in sodium cacodylate buffer at pH 7 at compound:polynucleotide concentration ratio of 0.1 by thermal denaturation assay; assay type: nucleic-acid assay
[26] = system: Poly(dA-dU)oligonucleotide; assay: Binding affinity to polyA-polyU dsRNA (unknown origin) assessed as stabilization of polynucleotide in sodium cacodylate buffer at pH 7 at compound:polynucleotide concentration ratio of 0.1 to 0.2 by thermal denaturation assay; assay type: nucleic-acid assay
[27] = Selectivity index, ratio of GI50 for human HaCaT cells to GI50 for human HCT116 cells incubated for 72 hrs by MTT assay; assay type: toxicity; details: HaCaT cells and HCT116 cells, read-out: RatioGI50

N#Cc1c(-n2cc(C3CC3)nn2)c2ccc(-n3cc(C4CC4)nn3)cc2n2c1nc1ccccc12
GI50 (HCT-116 [1]): 1.6 µM
GI50 (MCF7): 3 µM
GI50 (NCI-H460): 3 µM
GI50 at 72 h [2]: 3.24 µM

CCCCCCCCCCc1cn(-c2c(C#N)c3nc4ccccc4n3c3ccccc23)nn1
GI50 (HCT-116 [1]): 35 µM
GI50 (MCF7): 28.5 µM
GI50 (NCI-H460): 62 µM

N#Cc1c(-n2cc(CCCCl)nn2)c2ccc(-n3cc(CCCCl)nn3)cc2n2c1nc1ccccc12
GI50 (HCT-116 [1]): 2.5 µM
GI50 (MCF7): 6.9 µM
GI50 (NCI-H460): 3 µM
GI50 at 72 h [2]: 3.2 µM
log Ks (Calf thymus DNA [3]): 5.4
Ratio (Calf thymus DNA [4]): 0.1
Ratio (Calf thymus DNA [5]): 0.8
ΔTm (Calf thymus DNA [6]): 1.5 °C
ΔTm [7]: 0 °C
Drug uptake [8]: Active
Drug uptake [9]: Not Active
solubility [10]: Soluble
Activity (Calf thymus DNA [11]): Active
Activity [12]: Active
Activity (Calf thymus DNA [13]): Active
Activity (Calf thymus DNA [14]): Active
Activity [15]: Active
Activity (Calf thymus DNA [16]): Active

N#Cc1c(-n2cc(C3CC3)nn2)c2ccccc2n2c1nc1ccccc12
GI50 (HCT-116 [1]): 10 µM
GI50 (MCF7): 3 µM
GI50 (NCI-H460): 52 µM

CCCCCCCCCCc1cn(-c2ccc3c(-n4cc(CCCCCCCCCC)nn4)c(C#N)c4nc5ccccc5n4c3c2)nn1
GI50 (HCT-116 [1]): 16 µM
GI50 (MCF7): 15 µM
GI50 (NCI-H460): 17 µM

N#Cc1c(-n2cc(CCO)nn2)c2ccc(-n3cc(CCO)nn3)cc2n2c1nc1ccccc12
GI50 (HCT-116 [1]): 59 µM
GI50 (MCF7): 35 µM
GI50 (NCI-H460): ≥ 100 µM

N#Cc1c(-n2cc(CNS(=O)(=O)c3ccc(F)cc3)nn2)c2ccccc2n2c1nc1ccccc12
GI50 (HCT-116 [1]): 3.5 µM
GI50 (MCF7): 4.2 µM
GI50 (NCI-H460): 13 µM
GI50 at 72 h [2]: 2.9 µM

N#Cc1c(-n2cc(CCO)nn2)c2ccc(F)cc2n2c1nc1ccccc12
GI50 (HCT-116 [1]): 0.6 µM
GI50 (MCF7): 2 µM
GI50 (NCI-H460): 1 µM
GI50 at 72 h [2]: 0.73 µM
log Ks (Calf thymus DNA [3]): 5
Ratio (Calf thymus DNA [4]): 0.08
Ratio (Calf thymus DNA [5]): 0.5
ΔTm (Calf thymus DNA [6]): 1.3 °C
ΔTm [7]: 0 °C
Activity (HCT-116 [17]): Active
Drug uptake [8]: Active
Drug uptake [9]: Not Active
solubility [10]: Soluble
Activity (Calf thymus DNA [11]): Active
Activity [12]: Active
Activity (Calf thymus DNA [13]): Active
Activity (HCT-116 [18]): Active
Activity (Calf thymus DNA [14]): Active
Activity [15]: Active
Activity (Calf thymus DNA [16]): Active

COc1cc([C@@H]2c3cc4c(cc3[C@@H](O[C@@H]3O[C@@H]5CO[C@@H](C)O[C@H]5[C@H](O)[C@H]3O)[C@H]3COC(=O)[C@H]23)OCO4)cc(OC)c1O [ETOPOSIDE]
GI50 (HCT-116 [1]): 5 µM
GI50 (MCF7): 1 µM
GI50 (NCI-H460): 0.1 µM

CCCCCc1ccc(-c2cn(-c3c(C#N)c4nc5ccccc5n4c4cc(F)ccc34)nn2)cc1
GI50 (HCT-116 [1]): 7 µM
GI50 (MCF7): 24 µM
GI50 (NCI-H460): 32 µM

N#Cc1c(-n2cc(CCO)nn2)c2ccccc2n2c1nc1ccccc12
GI50 (HCT-116 [1]): 3.5 µM
GI50 (MCF7): 4.2 µM
GI50 (NCI-H460): 13 µM
GI50 at 72 h [2]: 3.3 µM

N#Cc1c(-n2cc(-c3ccc(Br)cc3)nn2)c2ccccc2n2c1nc1ccccc12
GI50 (HCT-116 [1]): 25 µM
GI50 (MCF7): 31 µM
GI50 (NCI-H460): 59.5 µM

N#Cc1c(-n2cc(CCCCl)nn2)c2ccccc2n2c1nc1ccccc12
Drug uptake [19]: Active
ΔTm [20]: 0.4 to 25.3 °C
GI50 (HCT-116 [1]): 1 µM
GI50 (MCF7): 1.5 µM
GI50 (NCI-H460): 2 µM
GI50 at 72 h [2]: 1 µM
log Ks (Calf thymus DNA [3]): 6.1
Ratio (Calf thymus DNA [4]): 0.4
Ratio (Calf thymus DNA [5]): 0.3
log Ks [21]: 6
Ratio [22]: 0.3
Ratio [23]: 0.2
ΔTm (Calf thymus DNA [6]): 1.2 °C
Drug uptake [24]: Not Active
solubility [10]: Soluble
Activity (Calf thymus DNA [11]): Active
Activity [12]: Active
ΔTm [25]: 0.2 to 17 °C
Activity (Calf thymus DNA [13]): Active
Activity [26]: Active
Activity (Calf thymus DNA [14]): Active
Activity [15]: Active
Activity (Calf thymus DNA [16]): Active

N#Cc1c(-n2cc(CCCCl)nn2)c2ccc(F)cc2n2c1nc1ccccc12
ΔTm [20]: 0.7 to 20.7 °C
GI50 (HCT-116 [1]): 0.5 µM
GI50 (MCF7): 2 µM
GI50 (NCI-H460): 0.7 µM
GI50 at 72 h [2]: 3.5 µM
log Ks (Calf thymus DNA [3]): 5.2
Ratio (Calf thymus DNA [4]): 0.1
Ratio (Calf thymus DNA [5]): 0.5
log Ks [21]: 5.9
Ratio [22]: 0.1
Ratio [23]: 0.4
ΔTm (Calf thymus DNA [6]): 0.5 °C
Activity (HCT-116 [17]): Active
Drug uptake [8]: Active
Drug uptake [9]: Not Active
selectivity ratio at 72 h [27]: > 7
solubility [10]: Soluble
Activity (Calf thymus DNA [11]): Active
Activity [12]: Active
ΔTm [25]: 0.7 to 16.6 °C
Activity (Calf thymus DNA [13]): inactive
Activity [26]: Active
Activity (HCT-116 [18]): Active
Activity (Calf thymus DNA [14]): Active
Activity [15]: Active
Activity (Calf thymus DNA [16]): Active

N#Cc1c(-n2cc(CNS(=O)(=O)c3ccc(F)cc3)nn2)c2ccc(F)cc2n2c1nc1ccccc12
GI50 (HCT-116 [1]): 2 µM
GI50 (MCF7): 3.9 µM
GI50 (NCI-H460): 3.4 µM
GI50 at 72 h [2]: 2.9 µM

N#Cc1c(-n2cc(-c3cc(C(F)(F)F)cc(C(F)(F)F)c3)nn2)c2ccccc2n2c1nc1ccccc12
GI50 (HCT-116 [1]): 1 µM
GI50 (MCF7): 4 µM
GI50 (NCI-H460): 1 µM
GI50 at 72 h [2]: 2.2 µM

CCCCCc1ccc(-c2cn(-c3c(C#N)c4nc5ccccc5n4c4ccccc34)nn2)cc1
GI50 (HCT-116 [1]): 34 µM
GI50 (MCF7): 35 µM
GI50 (NCI-H460): 32 µM

N#Cc1c(-n2cc(-c3cc(C(F)(F)F)cc(C(F)(F)F)c3)nn2)c2ccc(F)cc2n2c1nc1ccccc12
GI50 (HCT-116 [1]): 2 µM
GI50 (MCF7): 4.5 µM
GI50 (NCI-H460): 2 µM
GI50 at 72 h [2]: 2.1 µM

CCCCCc1ccc(-c2cn(-c3ccc4c(-n5cc(-c6ccc(CCCCC)cc6)nn5)c(C#N)c5nc6ccccc6n5c4c3)nn2)cc1
GI50 (HCT-116 [1]): 8 µM
GI50 (MCF7): 18 µM
GI50 (NCI-H460): 16 µM

CCCCCCCCCCc1cn(-c2c(C#N)c3nc4ccccc4n3c3cc(F)ccc23)nn1
GI50 (HCT-116 [1]): 3 µM
GI50 (MCF7): 5 µM
GI50 (NCI-H460): 7 µM
GI50 at 72 h [2]: 3.5 µM
